The test system of assay [1] is Meloidogyne incognita. Put plainly: Nematicidal activity against Meloidogyne incognita. Format: functional. The conditions noted are these: read-out: LD50 (the source's name).
Another assay relates to HeLa S3. Briefly: Cytotoxicity against human HeLaS3 cells up to 100 ug/mL. Format: functional, cell-based.
Another assay deals with L1210. Put plainly: Antiproliferative activity against mouse L1210 cells at 50 ug/mL. Format: functional.
The next assay has as its system Lepidium sativum. Put plainly: Phytotoxicity against Lepidium sativum assessed as inhibition of seedling germination at 100 ug/mL. It is filed as functional. Set-up: scale not given: the % may be the effect or the level left.
The subject of assay [2] is Meloidogyne incognita. Briefly: Nematicidal activity against Meloidogyne incognita up to 100 ug/mL. Format: functional, organism-based.
A further assay relates to Setaria italica. Briefly: Phytotoxicity against Setaria italica assessed as inhibition of seedling germination at 100 ug/mL. It is filed as functional. Further details: scale not given: the % may be the effect or the level left.
Another assay has as its system HL-60. Briefly: Cytotoxicity against human HL60 cells up to 100 ug/mL. It is filed as functional, cell-based.

Converted amounts (≈) assume the structure as drawn. The source made the active and inactive calls. The calls are words filed in the database; no cut-off is given here.

For the molecule `COc1c(-c2ccco2)coc(=O)c1C` [CLADOBOTRIN], in the assay with Meloidogyne incognita [1], the LC50 amounted to 100 µg/mL (≈ 485 µM).
For the molecule `CC(C)C[C@]12NC(=O)[C@@]3(O)C(=O)C[C@](C)(O[C@H]31)O2` [RUBROBRAMIDE], the result with HeLa S3, in the assay with Meloidogyne incognita [2] and with HL-60 was inactive. In addition, the Activity in the assay with L1210, in the assay with Lepidium sativum and in the assay on Setaria italica was 50% throughout.

These data come from ChEMBL document CHEMBL1158672, “Rubrobramide, a cytotoxic and phytotoxic metabolite from Cladobotyrum rubrobrunnescens” (1998).
